In brackets after ≈: the same amount, converted by molar mass.
Tests used:
[1] = test system: Bacillus subtilis; assay: Antibacterial activity against Bacillus subtilis 168 assessed as reduction in microbial growth incubated for 24 hrs by broth microdilution method; format: functional
[2] = test system: Micrococcus luteus; assay: Antibacterial activity against clinical isolate Micrococcus luteus assessed as reduction in microbial growth incubated for 24 hrs by broth microdilution method; format: functional
[3] = test system: Pseudomonas aeruginosa; assay: Antibacterial activity against Pseudomonas aeruginosa ATCC 27853 assessed as reduction in microbial growth incubated for 24 hrs by broth microdilution method; format: functional
[4] = test system: Salmonella typhimurium; assay: Antibacterial activity against Salmonella typhimurium TA100 assessed as reduction in microbial growth incubated for 24 hrs by broth microdilution method; format: functional, Salmonella enterica subsp. enterica serovar Typhimurium; conditions: Salmonella enterica
[5] = test system: Staphylococcus epidermidis; assay: Antibacterial activity against clinical isolate Staphylococcus epidermidis assessed as reduction in microbial growth incubated for 24 hrs by broth microdilution method; format: functional
[6] = test system: Staphylococcus aureus; assay: Antibacterial activity against methicillin sensitive Staphylococcus aureus ATCC 29213 assessed as reduction in microbial growth incubated for 24 hrs by broth microdilution method; format: functional
[7] = test system: Escherichia coli; assay: Antibacterial activity against Escherichia coli ATCC 25922 assessed as reduction in microbial growth incubated for 24 hrs by broth microdilution method; format: functional
[8] = test system: Pseudomonas aeruginosa; assay: Antibacterial activity against clinical isolate Pseudomonas aeruginosa NKC 17 assessed as reduction in microbial growth incubated for 24 hrs by broth microdilution method; format: functional
[9] = test system: Staphylococcus aureus; assay: Antibacterial activity against clinical isolate methicillin resistant Staphylococcus aureus 4771 assessed as reduction in microbial growth incubated for 24 hrs by broth microdilution method; format: functional
[10] = test system: Staphylococcus haemolyticus; assay: Antibacterial activity against clinical isolate Staphylococcus haemolyticus NKC 31/2 assessed as reduction in microbial growth incubated for 24 hrs by broth microdilution method; format: functional
[11] = test system: Staphylococcus aureus; assay: Antibacterial activity against clinical isolate Staphylococcus aureus 4721 assessed as reduction in microbial growth incubated for 24 hrs by broth microdilution method; format: functional
[12] = Cytotoxicity against human HSF assessed as reduction in cell viability incubated for 72 hrs by MTT assay; format: toxicity, cell-based; conditions: HSF cells
[13] = test system: Escherichia coli; assay: Antibacterial activity against clinical isolate Escherichia coli NKC 1 assessed as reduction in microbial growth incubated for 24 hrs by broth microdilution method; format: functional
[14] = test system: Staphylococcus haemolyticus; assay: Antibacterial activity against clinical isolate Staphylococcus haemolyticus 1464 assessed as reduction in microbial growth incubated for 24 hrs by broth microdilution method; format: functional
[15] = Cytotoxicity against human CHL assessed as reduction in cell viability incubated for 72 hrs by MTT assay; format: toxicity, cell-based; conditions: CHL cells
[16] = test system: Klebsiella aerogenes; assay: Antibacterial activity against clinical isolate Enterobacter aerogenes NKC 8 assessed as reduction in microbial growth incubated for 24 hrs by broth microdilution method; format: functional
[17] = test system: Staphylococcus epidermidis; assay: Antibacterial activity against clinical isolate Staphylococcus epidermidis NKC 37/1 assessed as reduction in microbial growth incubated for 24 hrs by broth microdilution method; format: functional
[18] = test system: Staphylococcus aureus; assay: Antibacterial activity against clinical isolate Staphylococcus aureus 1812 assessed as reduction in microbial growth incubated for 24 hrs by broth microdilution method; format: functional
[19] = test system: Enterococcus faecalis; assay: Antibacterial activity against clinical isolate Enterococcus faecalis 1465 assessed as reduction in microbial growth incubated for 24 hrs by broth microdilution method; format: functional
[20] = test system: Klebsiella pneumoniae; assay: Antibacterial activity against clinical isolate Klebsiella pneumoniae 1678 assessed as reduction in microbial growth incubated for 24 hrs by broth microdilution method; format: functional
[21] = test system: Cedecea davisae; assay: Antibacterial activity against clinical isolate Cedecea davisae 1813 assessed as reduction in microbial growth incubated for 24 hrs by broth microdilution method; format: functional
[22] = Cytotoxicity against human MSC assessed as reduction in cell viability incubated for 72 hrs by MTT assay; format: toxicity, cell-based; conditions: MSC cells
[23] = test system: Staphylococcus auricularis; assay: Antibacterial activity against clinical isolate Staphylococcus auricularis NKC 7 assessed as reduction in microbial growth incubated for 24 hrs by broth microdilution method; format: functional

Compound | MIC [1] [µg/mL] | MIC [2] [µg/mL] | MIC [3] [µg/mL] | MIC [4] [µg/mL] | MIC [5] [µg/mL] | MIC [6] [µg/mL] | MIC [7] [µg/mL] | other results
CCCCCCCCC1OCc2c(CN3CCC[C@H]4CN(c5c(F)cc6c(=O)c(C(=O)O)cn(C7CC7)c6c5OC)C[C@H]43)cnc(C)c2O1 (some centres undefined) | 8 | 16 | > 64 | 16 | 32 | 16 | > 64 | 
CCn1cc(C(=O)O)c(=O)c2cc(F)c(N3CCNC(C)C3)c(F)c21 (centres undefined) [LOMEFLOXACIN] | 0.5 | 1 | 4 | 1 | 2 | 0.5 | 1 | MIC [8]: 1 µg/mL; MIC [9]: 1 µg/mL; MIC [10]: 8 µg/mL; MIC [11]: 1 µg/mL; CC50 at 72 h [12]: 46.2 µg/mL (≈ 131 µM); MIC [13]: 0.06 µg/mL; MIC [14]: 0.5 µg/mL; CC50 at 72 h [15]: 31.3 µg/mL (≈ 89.1 µM); MIC [16]: 1 µg/mL; MIC [17]: 2 µg/mL; MIC [18]: 2 µg/mL; MIC [19]: > 64 µg/mL; MIC [20]: 1 µg/mL; MIC [21]: 0.25 µg/mL; CC50 at 72 h [22]: 35.7 µg/mL (≈ 102 µM); MIC [23]: 0.06 µg/mL
CCn1cc(C(=O)O)c(=O)c2cc(F)c(N3CCN(Cc4cnc(C)c(O)c4C)CC3)cc21.Cl | 2 | 8 | > 64 | 64 | 16 | 4 | 2 | 
Cc1ncc(CN2CCN(c3cc4c(cc3F)c(=O)c(C(=O)O)cn4C3CC3)CC2)c(C)c1O.Cl | 0.5 | 0.5 | 32 | 1 | 0.5 | 0.5 | 1 | MIC [8]: 16 µg/mL; MIC [9]: 0.5 µg/mL; MIC [10]: 16 µg/mL; MIC [11]: 0.5 µg/mL; CC50 at 72 h [12]: 27.6 µg/mL; MIC [13]: 0.13 µg/mL; MIC [14]: 0.5 µg/mL; CC50 at 72 h [15]: 14.2 µg/mL; MIC [16]: 1 µg/mL; MIC [17]: 0.5 µg/mL; MIC [18]: 1 µg/mL; MIC [19]: 16 µg/mL; MIC [20]: 16 µg/mL; MIC [21]: 0.5 µg/mL; CC50 at 72 h [22]: 25.1 µg/mL; MIC [23]: 0.06 µg/mL
COc1c(N2C[C@@H]3CCCN(Cc4cnc(C)c5c4COC(C)O5)[C@@H]3C2)c(F)cc2c(=O)c(C(=O)O)cn(C3CC3)c12 (some centres undefined) | 1 | 4 | > 64 | 4 | 4 | 1 | 16 | 
Cc1ncc(CN2CCN(c3cc4c(cc3F)c(=O)c(C(=O)O)cn4C3CC3)CC2)c2c1OC(C)OC2.Cl (centres undefined) | 2 | 8 | > 64 | 4 | 8 | 8 | > 64 | 
CCCC1OCc2c(CN3CCN(c4cc5c(cc4F)c(=O)c(C(=O)O)cn5C4CC4)CC3)cnc(C)c2O1 (centres undefined) | 2 | 64 | > 64 | 4 | 64 | 64 | > 64 | 
CCCCCCCCC1OCc2c(CN3CCN(c4cc5c(cc4F)c(=O)c(C(=O)O)cn5CC)CC3)cnc(C)c2O1 (centres undefined) | 64 | > 64 | > 64 | > 64 | > 64 | > 64 | > 64 | 
Cc1nc(CN2CCN(c3cc4c(cc3F)c(=O)c(C(=O)O)cn4C3CC3)CC2)c(CO)c(CO)c1O.Cl | 2 | 32 | > 64 | 4 | 32 | 64 | 64 | 
CCCC1OCc2c(CN3CCN(c4cc5c(cc4F)c(=O)c(C(=O)O)cn5CC)CC3)cnc(C)c2O1 (centres undefined) | 2 | 64 | > 64 | 2 | 32 | 16 | > 64 | 
CCn1cc(C(=O)O)c(=O)c2cc(F)c(N3CCN(Cc4cnc(C)c(O)c4CO)CC3)cc21.Cl | 4 | 32 | > 64 | 4 | 32 | 16 | 64 | 
CCCCCCCCC1OCc2c(CN3CCN(c4cc5c(cc4F)c(=O)c(C(=O)O)cn5C4CC4)CC3)cnc(C)c2O1 (centres undefined) | 2 | 64 | > 64 | 4 | 64 | 32 | > 64 | 

Further lines, with some results ahead:

MIC [1] [µg/mL] | MIC [2] [µg/mL] | MIC [3] [µg/mL] | MIC [4] [µg/mL] | MIC [5] [µg/mL] | MIC [6] [µg/mL] | MIC [7] [µg/mL] | Compound | other results
64 | > 64 | > 64 | > 64 | > 64 | > 64 | 64 | CCn1cc(C(=O)O)c(=O)c2cc(F)c(N3CCN(Cc4cnc(C)c5c4COC(C)(C)O5)CC3)cc21 | 
4 | 32 | > 64 | 4 | 16 | 8 | 16 | CCn1cc(C(=O)O)c(=O)c2cc(F)c(N3CCN(Cc4cnc(C)c5c4COCO5)C(C)C3)c(F)c21.Cl (centres undefined) | 
2 | 64 | > 64 | 2 | 64 | 2 | 2 | CCn1cc(C(=O)O)c(=O)c2cc(F)c(N3CCN(Cc4nc(C)c(O)c(CO)c4CO)C(C)C3)c(F)c21.Cl (centres undefined) | 
1 | 32 | > 64 | 2 | > 64 | 2 | 2 | CCn1cc(C(=O)O)c(=O)c2cc(F)c(N3CCN(Cc4cnc(C)c(O)c4C)C(C)C3)c(F)c21.Cl (centres undefined) | 
2 | > 64 | 16 | 2 | 8 | 2 | > 64 | CCn1cc(C(=O)O)c(=O)c2cc(F)c(N3CCN(Cc4cnc(C)c5c4COC(C)O5)C(C)C3)c(F)c21 (centres undefined) | 
2 | 16 | > 64 | 2 | 8 | 16 | > 64 | CCCC1OCc2c(CN3CCN(c4c(F)cc5c(=O)c(C(=O)O)cn(CC)c5c4F)CC3C)cnc(C)c2O1 (centres undefined) | 
4 | 8 | > 64 | 16 | 32 | 8 | > 64 | CCn1cc(C(=O)O)c(=O)c2cc(F)c(N3CCN(Cc4nc(C)c(O)c(CO)c4CO)CC3)cc21.Cl | 
> 64 | > 64 | > 64 | > 64 | > 64 | > 64 | > 64 | CCCCCCCCC1OCc2c(CN3CCN(c4c(F)cc5c(=O)c(C(=O)O)cn(CC)c5c4F)CC3C)cnc(C)c2O1 (centres undefined) | 
2 | 32 | > 64 | 4 | 16 | 32 | 64 | Cc1ncc(CN2CCN(c3cc4c(cc3F)c(=O)c(C(=O)O)cn4C3CC3)CC2)c2c1OC(C)(C)OC2.Cl | 
2 | 8 | > 64 | 2 | 64 | 16 | > 64 | CCn1cc(C(=O)O)c(=O)c2cc(F)c(N3CCN(Cc4cnc(C)c5c4COC(C)(C)O5)C(C)C3)c(F)c21.Cl (centres undefined) | 
4 | > 64 | > 64 | 2 | 16 | 64 | 8 | CCn1cc(C(=O)O)c(=O)c2cc(F)c(N3CCN(Cc4nc(C)c5c(c4CO)COC(C)(C)O5)C(C)C3)c(F)c21 (centres undefined) | 
8 | 16 | > 64 | 4 | 16 | 8 | 8 | CCn1cc(C(=O)O)c(=O)c2cc(F)c(N3CCN(Cc4c(CO)nc(C)c(O)c4CO)CC3)cc21.Cl | 
2 | 8 | > 64 | 4 | 8 | 8 | 64 | Cc1nc(CN2CCN(c3cc4c(cc3F)c(=O)c(C(=O)O)cn4C3CC3)CC2)c(CO)c2c1OC(C)(C)OC2 | 
8 | 64 | > 64 | 16 | 32 | 32 | > 64 | CCn1cc(C(=O)O)c(=O)c2cc(F)c(N3CCN(Cc4cnc(C)c5c4COC(C)O5)CC3)cc21 (centres undefined) | 

Reference: ChEMBL document CHEMBL5634112, “Synthesis and biological evaluation of fluoroquinolones containing a pyridoxine derivatives moiety” (Eur J Med Chem, 2023)
